# US20190177279A1, “CARBOXYLIC ACID AROMATIC 1,2-CYCLOPROPYLAMIDES” (Bayer Pharma Aktiengesellschaft, priority 2017, published 2019)
# Read-outs that look alike come from different tables or passages of the source.
# Tests used:
# [1] = target: T1, human B1 receptor (Homo sapiens, UniProt P46663); assay: Calcium flux assay (FLIPR) with recombinant CHO-K1 cells expressing human B1 receptor; assay type: cell-based; conditions: agonist Lys-(Des-Arg)-Bradykinin
# T1 construct: host or cells: CHO-K1
# T1 sequence (P46663 1-353): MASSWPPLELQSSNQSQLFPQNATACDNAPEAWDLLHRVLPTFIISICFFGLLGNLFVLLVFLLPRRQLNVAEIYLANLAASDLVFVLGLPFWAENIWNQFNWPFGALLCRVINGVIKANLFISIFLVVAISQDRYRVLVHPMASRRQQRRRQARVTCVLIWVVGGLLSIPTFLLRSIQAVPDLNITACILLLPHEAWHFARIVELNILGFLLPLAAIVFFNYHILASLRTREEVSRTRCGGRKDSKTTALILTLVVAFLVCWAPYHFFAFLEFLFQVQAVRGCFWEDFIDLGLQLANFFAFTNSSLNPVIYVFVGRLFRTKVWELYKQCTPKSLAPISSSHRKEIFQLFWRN
# Method: The potency to inhibit the Bradykinin B1 receptors was determined for the example compounds of this invention in a cell-based fluorescent calcium-mobilisation assay. The assay measures the ability of example compounds to inhibit Bradykinin B1 receptor agonist-induced increase of intracellular free Ca^2+ in the cell line expressing B1 receptor. Specifically, calcium indicator—loaded cells are pre-incubated in the absence or presence of different concentrations of example compounds followed by the stimulation with a selective B1 receptor agonist peptide. The change of the intracellular Ca^2+ concentration is monitored with a fluorescent plate reader FLIPR (Molecular Devices).
# Calcium flux Assay (FLIPR) with recombinant cells for Bradykinin B1 receptor antagonist, either in the presence (hB1 IC50) or absence (hB1 free IC50) of 0.1% BSA in assay buffer
# CHO-K1 cell line expressing human B1 receptor was purchased from Euroscreen (Gosselies, Belgium, with reference name hB1-D1). The cells were grown in Nutrient Mixture Ham's F12 (Sigma) containing 10% Foetal bovine serum (Sigma) and 400 μg/mL G418 (Sigma), 5 μg/mL puromycin (Sigma).
# For the calcium flux assay, 80% confluent cells were detached from the culture vessels with Versene (Gibco), and seeded into 384-well plates (Cell binding Surface; Corning, N.Y.; #3683) at a density of 15,000 cells per well. Cells were seeded in a volume of 50 μL in medium without antibiotics and incubated overnight in a humidified atmosphere with 5% CO2 at 37° C. […] The calcium indicator loaded cells were incubated at 37° C. for 2 hrs. Extracellular dye was then removed and each well was filled with 45 μL of assay buffer. Cell plates were kept in dark until used. Example compounds were assayed at 8 concentrations in triplicate. Serial 10-fold dilutions in 100% DMSO were made at a 100-times higher concentration than the final concentration, and then diluted 1:10 in assay buffer. 5 μL of each diluted compound was added to the well of cell plates (yielding final concentration with 1% DMSO), and incubated for 30 min at 28° C. before the addition of B1 receptor agonist on the FLIPR instrument.
# Agonist plates contained the agonist Lys-(Des-Arg)-Bradykinin (Bachem, Brackley) at 3.5×EC90 in assay buffer with 1% DMSO. The addition of agonist 20 μl per well to the assay plate was carried out on the FLIPR instrument while continuously monitoring Ca^2+-dependent fluorescence at 538 nm. A peptide antagonist Lys-(Des-Arg-Leu)-Bradykinin (Bachem, Brackley) at 20 µM was used to determine the full inhibition as control.
# Peak fluorescence was used to determine the response to agonist obtained at each concentration of example compound by the following equation:
# % Response=100*(RFU(example compound)−RFU(control)/(RFU(DMSO)−RFU(control)) • Control=full inhibition by the peptide antagonist Lys-(Des-Arg-Leu)-Bradykinin at 20 μM
# The response values were plotted against the logarithm of the compound concentrations. The compounds were tested in triplicates per plate and mean values were plotted in Excel XLfit to determine IC50 values, percentage of maximal inhibition and the Hill slopes.
# [2] = target: T2, native human B1 receptors (Homo sapiens, UniProt P46663); assay: Calcium flux assay (FLIPR) with IMR-90 human foetal lung fibroblasts after IL-1 induction; assay type: cell-based; conditions: IMR-90 fibroblasts induced with human IL-1; 0.1% BSA in assay buffer; agonist Lys-(Des-Arg)-Bradykinin at EC90; read-out: hB1 IC50 IMR90
# T2 construct: which express native human B1 receptors after induction with human IL-1; Coriell Institute; host or cells: IMR-90 human foetal lung fibroblasts, induced with human IL-1
# T2 sequence (P46663 1-353): T1 sequence (P46663 1-353)
# Method: Calcium Flux Assay (FLIPR) with Human Fibroblasts for Bradykinin B1 Receptor Antagonist (hB1 IMR-90 IC50)
# The Calcium flux Assay was carried out utilising IMR-90 human foetal lung fibroblasts (American Type Culture Collection, Rockville, Md.; and Coriell Institute, Camden, N.J.), which express native human B1 receptors after induction with human IL-1[…].
# The fibroblasts were cultured in complete growth media comprised of Dulbecco's modified Eagle's medium (DMEM; Sigma) containing 10% foetal bovine serum, 4 mM L-glutamine, and 1% nonessential amino acids. The cells were maintained in a humidified atmosphere with 5% CO2 at 37° C. and were sub-cultured at a ratio of 1:3, every other day.
# For the assay, IMR-90 fibroblasts were harvested using TrypLE Express (GIBCO/Invitrogen) and seeded into 384-well plates (Corning Cellbinding Surface, Cat. 3683) at a density of 15000 cells/well. The following day, cells were treated with 0.35 ng/mL human IL-1[…] in 10% FBS/MEM for 3 h to up-regulate B1 receptors. Induced cells were loaded with fluorescent calcium indicator by incubation with 2.5 μM Fluo-4/AM (Invitrogen) at 37° C., 5% CO2 for 2 h in the presence of 2.5 mM probenecid in 1% FBS/MEM. Extracellular dye was removed by washing with assay buffer (2.5 mM probenecid and 0.1% BSA in 20 mM HEPES/HBSS without bicarbonate or phenol red, pH 7.5). Example compounds were assayed at 8 concentrations in triplicate. After addition of example compounds to the cell plate and incubation for 30 min at 28° C., the addition of B1 agonist Lys-(Des-Arg)-Bradykinin (Bachem, Brackley) at a final concentration of EC90 was carried out on the FLIPR instrument while continuously monitoring Ca^2+-dependent fluorescence at 538 nm. A peptide antagonist Lys-(Des-Arg-Leu)-Bradykinin (Bachem, Brackley) at 20 μM was used to determine the full inhibition as control. IC50 values were determined by the same way described for the FLIPR assay with recombinant cells.
# [3] = prior art, Bioorg Med Chem Lett 2010; cited from earlier work
# [4] = prior art, Bioorg Med Chem Lett 2010; cited from earlier work; remark: listed apart in the source
# [5] = prior art, Bioorg Med Chem Lett 2010; cited from earlier work; remark: listed apart in the source
# [6] = prior art, Bioorg Med Chem Lett 2010; cited from earlier work; remark: listed apart in the source
# [7] = due to metabolic liability; prior art; cited from earlier work
# [8] = system: IL-8 secretion; assay: Bradykinin B1 receptor agonist-induced secretion of IL-8 in human IMR-90 cells; assay type: cell-based; conditions: 0.1 μM Lys-[Des-Arg9]Bradykinin and 0.1 μM Sar-[D-Phe8]-des-Arg9-Bradykinin, 5 hours
# Description: (§1) Inhibitory Activity on Bradykinin B1 Receptor Agonist-Induced Secretion of IL-6 and IL-8 in Human IMR-90 Cells
# (§2) The effect of the compound examples on secretion of the cytokine IL-6 and IL-8 was investigated in the human foetal lung fibroblast IMR-90 cell line. Here the induction of the cytokine secretion was induced by the Bradykinin B1 receptor agonists Lys-[Des-Arg9]Bradykinin (CAS 71800-36-7, Tocris Bioscience) and Sar-[D-Phe8]-des-Arg9-Bradykinin (CAS 126959-88-4, Tocris Bioscience) leading to the activation of the Bradykinin B1-driven signalling pathway. […]
# (§3) IMR-90 cells were cultured in Eagle's Minimum Essential Medium (EMEM) containing 2 mM L-glutamine, 1 g/L glucose, 1.5 g/L NaHCO3, 1 mM sodium pyruvate and non-essential amino acids (ATCC, 30-2003™) supplemented with 10% FBS (Biochrom, 50615) and 50 U/mL Penicillin, 50 μg/mL Streptomycin (PAA, P11-010). […] The compound examples were serially diluted in 100% DMSO and evaluated at 8 different concentrations within the range of 3 nM and 10 μM and a final DMSO concentration of 0.4%. […] The amount of IL-6 and IL-8 in the supernatant was determined using the Human ProInflammatory Panel II (4-Plex) (MSD, K15025B) according to manufacturer's instruction. […] The cell viability was measured using the CellTiter-Glo Luminescent Assay (Promega, G7571) following the manufacturers protocol. […]
# [9] = system: IL-6 secretion; assay: Bradykinin B1 receptor agonist-induced secretion of IL-6 in human IMR-90 cells; assay type: cell-based; conditions: 0.1 μM Lys-[Des-Arg9]Bradykinin and 0.1 μM Sar-[D-Phe8]-des-Arg9-Bradykinin, 5 hours
# Description: as §1, §2, §3
# [10] = system: stimulated IMR-90 cells; assay: Cell viability, CellTiter-Glo Luminescent Assay; assay type: cell-based, human
# Method: IMR-90 cells were cultured in Eagle's Minimum Essential Medium (EMEM) containing 2 mM L-glutamine, 1 g/L glucose, 1.5 g/L NaHCO3, 1 mM sodium pyruvate and non-essential amino acids (ATCC, 30-2003™) supplemented with 10% FBS (Biochrom, 50615) and 50 U/mL Penicillin, 50 μg/mL Streptomycin (PAA, P11-010). The assay was performed in EMEM and a cell density of […] IMR-90 cells/96-well. The compound examples were serially diluted in 100% DMSO and evaluated at 8 different concentrations within the range of 3 nM and 10 μM and a final DMSO concentration of 0.4%. The IMR-90 cells were incubated with the respective concentration of the compound for 30 min. […] The amount of IL-6 and IL-8 in the supernatant was determined using the Human ProInflammatory Panel II (4-Plex) (MSD, K15025B) according to manufacturer's instruction. […] Plates were washed three times with phosphate-buffered saline (PBS; 137 mM NaCl, 2.7 mM KCl, 6.5 mM Na2HP04, 1.7 mM KH2P04) containing 0.05% Tween-20 (Bio-Rad, 161-0781) and electrochemiluminescence detected using the MSD Sector Imager 6000 plate reader. The cell viability was measured using the CellTiter-Glo Luminescent Assay (Promega, G7571) following the manufacturers protocol. […] After incubation and shaking for 10 minutes luminescent signal was measured which was proportional to the amount of ATP present. […]
# [11] = absence of 0.1% BSA in assay buffer, read-out: hB1 free IC50
Compound,"IC50 [1, 11] [nM]",IC50 [2] [nM],also measured
"O=C(O)c1cc(NC(=O)C2CC2c2ccc(Cl)cc2)cc(F)c1-c1ccc(C(F)(F)F)nc1 (racemic) [Example 24, 5-({[2-(4-chlorophenyl)cyclopropyl]carbonyl}amino)-3-fluoro-2-[6-(trifluoromethyl)pyridin-3-yl]benzoic acid]",1080,2330,
(+)-5-({[trans-2-(4-chlorophenyl)cyclopropyl]carbonyl}amino)-2-(1-cyclobutyl-1H-pyrazol-4-yl)-3-fluorobenzoic acid [Example 3],10,51,
C[C@@H]1CC[C@H](C)N1C(=O)c1ccc([C@@H](C)NC(=O)C2(NC(=O)c3cc(F)cc(C(F)(F)F)c3)CC2)c(F)c1,,,human metabolic stability [3]: poor; aqueous solubility [4]: reasonable; pharmacokinetic profile in rat [5]: reasonable; penetration profile [6]: acceptable
"Cc1ccc(-c2ccc(NC(=O)C3CC3c3ccc(Cl)cc3)cc2C(=O)O)cn1 (racemic) [Example 15, 5-({[2-(4-chlorophenyl)cyclopropyl]carbonyl}amino)-2-(6-methylpyridin-3-yl)benzoic acid]",2420,12000,
C[C@@H](NC(=O)C1(NC(=O)C(F)(F)F)CC1)c1ccc(-c2cccc(Cl)c2C(=O)O)cc1F [MK-0686],,,pharmacokinetic profile [7]: suboptimal
"O=C(O)c1cc(NC(=O)C2CC2c2cccc(Cl)c2)ccc1-c1cnn(C2CCC2)c1 (racemic) [Example 1, 5-({[2-(3-chlorophenyl)cyclopropyl]carbonyl}amino)-2-(1-cyclobutyl-1H-pyrazol-4-yl)benzoic acid]",207,,"IC50 ([1]; presence of 0.1% BSA in assay buffer, read-out: hB1 IC50): 65 nM; IC50 [8]: 509 nM; IC50 [9]: 99 nM; effect on the cell viability [10]: no effect"
"CC(C)(C)c1cnn(-c2ccc(NC(=O)C3CC3c3ccc(Cl)cc3)cc2C(=O)O)c1 (racemic) [Example 13, 2-(4-tert-Butyl-1H-pyrazol-1-yl)-5-({[2-(4-chlorophenyl)cyclopropyl]carbonyl}amino)benzoic acid]",1760,3390,
